Results published in patent publication US20190100517A1, “COMPOUNDS” (GlaxoSmithKline Intellectual Property Development Limited, priority 2015, published 2019).
Values joined by “and” are separate entries in the source; they are usually repeats but may differ in a detail not shown here. Identical values can stand only once.

Target: human KMO (Homo sapiens, UniProt O15229)
Assay: KMO MS Rapidfire assay (RapidFire high-throughput mass spectrometry, Method 1 or Method 2)

human KMO, sequence (O15229 whole entry): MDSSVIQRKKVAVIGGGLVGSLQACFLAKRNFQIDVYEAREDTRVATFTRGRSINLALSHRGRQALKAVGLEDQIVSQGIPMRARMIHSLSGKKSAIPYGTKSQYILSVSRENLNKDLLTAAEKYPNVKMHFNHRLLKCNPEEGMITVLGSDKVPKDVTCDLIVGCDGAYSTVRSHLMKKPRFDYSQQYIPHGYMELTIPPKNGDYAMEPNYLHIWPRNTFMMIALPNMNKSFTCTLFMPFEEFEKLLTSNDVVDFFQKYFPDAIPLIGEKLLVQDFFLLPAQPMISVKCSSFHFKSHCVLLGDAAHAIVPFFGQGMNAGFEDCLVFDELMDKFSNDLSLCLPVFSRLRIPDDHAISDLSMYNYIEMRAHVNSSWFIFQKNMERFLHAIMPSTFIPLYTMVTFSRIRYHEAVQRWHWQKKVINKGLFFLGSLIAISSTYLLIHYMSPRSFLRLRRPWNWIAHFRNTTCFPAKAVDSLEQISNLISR

Compound | IC50
CCC(Oc1cc2sc(=O)n(CCC(=O)O)c2cc1Cl)c1ncc(C)cn1 (single isomer, unassigned) [Example 5, 3-{5-chloro-6-[1-(5-methylpyrimidin-2-yl)propoxy]-2-oxo-2,3-dihydro-1,3-benzothiazol-3-yl}propanoic acid] | ≤ 10 nM
CCC(Oc1cc2sc(=O)n(CCC(=O)O)c2cc1Cl)c1ccc(C)cn1 (single isomer, unassigned) [Example 8, 3-{5-chloro-6-[1-(5-methylpyridin-2-yl)propoxy]-2-oxo-2,3-dihydro-1,3-benzothiazol-3-yl}propanoic acid] | ≤ 10 nM
CC[C@@H](Oc1cc2sc(=O)n(CCC(=O)O)c2cc1Cl)c1ccc(Cl)cn1 (single isomer, unassigned) [Example 9, 3-{5-chloro-6-[1-(5-chloropyridin-2-yl)propoxy]-2-oxo-2,3-dihydro-1,3-benzothhiazol-3-yl}propanoic acid] | ≤ 10 nM
CCC(Oc1cc2sc(=O)n(CCC(=O)O)c2cc1Cl)c1cccnn1 (single isomer, unassigned) [Example 14, 3-{5-chloro-2-oxo-6-[1-(pyridazin-3-yl)propoxy]-2,3-dihydro-1,3-benzothiazol-3-yl}propanoic acid] | ≤ 10 nM
Cc1ccc(C(C)Oc2cc3sc(=O)n(CCC(=O)O)c3cc2Cl)nn1 (single isomer, unassigned) [Example 16, 3-{5-chloro-6-[1-(6-methylpyridazin-3-yl)ethoxy]-2-oxo-2,3-dihydro-1,3-benzothiazol-3-yl}propanoic acid] | ≤ 10 nM
Cc1cnc(C(C)Oc2cc3sc(=O)n(CCC(=O)O)c3cc2Cl)nc1 (single isomer, unassigned) [Example 18, 3-{5-chloro-6-[1-(5-methylpyrimidin-2-yl)ethoxy]-2-oxo-2,3-dihydro-1,3-benzothiazol-3-yl}propanoic acid] | ≤ 10 nM
CCC(Oc1cc2sc(=O)n(CCC(=O)O)c2cc1Cl)c1ccccn1 (single isomer, unassigned) [Example 19, 3-{5-chloro-2-oxo-6-[1-(pyridin-2-yl)propoxy]-2,3-dihydro-1,3-benzothiazol-3-yl}propanoic acid] | ≤ 10 nM
CCc1ccc(C(C)Oc2cc3sc(=O)n(CCC(=O)O)c3cc2Cl)nc1 (single isomer, unassigned) [Example 25, 3-{5-chloro-6-[1-(5-ethylpyridin-2-yl)ethoxy]-2-oxo-2,3-dihydro-1,3-benzothiazol-3-yl}propanoic acid] | ≤ 10 nM
CCC(Oc1cc2sc(=O)n(CCC(=O)O)c2cc1Cl)c1ncccn1 (single isomer, unassigned) [Example 29, 3-{5-chloro-2-oxo-6-[1-(pyrimidin-2-yl)propoxy]-2,3-dihydro-1,3-benzothiazol-3-yl}propanoic acid] | ≤ 10 nM
CCC(Oc1cc2sc(=O)n(CCC(=O)O)c2cc1Cl)c1ccc(C)nn1 (single isomer, unassigned) [Example 32, 3-{5-chloro-6-[1-(6-methylpyridazin-3-yl)propoxy]-2-oxo-2,3-dihydro-1,3-benzothiazol-3-yl}propanoic acid] | ≤ 10 nM
C[C@@H](Oc1cc2sc(=O)n(CCC(=O)O)c2cc1Cl)c1ccc(Cl)cn1 [Example 1, 3-(5-chloro-6-[(R)-1-(5-chloropyridin-2-yl)ethoxy]-2-oxobenzo[d]thiazol-3(2H)-yl)propanoic acid] | ≤ 10 nM and 1.26 nM
Cc1ccc(COc2cc3sc(=O)n(CCC(=O)O)c3cc2Cl)nn1 [Example 22, 3-{5-chloro-6-[(6-methylpyridazin-3-yl)methoxy]-2-oxo-2,3-dihydro-1,3-benzothiazol-3-yl}propanoic acid] | ≤ 10 nM
Cc1ccc([C@@H](C)Oc2cc3sc(=O)n(CCC(=O)O)c3cc2Cl)nc1 [Example 33, 3-{5-chloro-6-[(1R)-1-(5-methylpyridin-2-yl)ethoxy]-2-oxo-2,3-dihydro-1,3-benzothiazol-3-yl}propanoic acid] | ≤ 10 nM

Further lines, results first:

IC50 | Compound
≤ 10 nM | CCC(Oc1cc2sc(=O)n(CCC(=O)O)c2cc1Cl)c1ncc(Cl)cn1 (single isomer, unassigned) [Example 11, 3-{5-chloro-6-[1-(5-chloropyrimidin-2-yl)propoxy]-2-oxo-2,3-dihydro-1,3-benzothiazol-3-yl}propanoic acid]
≤ 10 nM | CC(Oc1cc2sc(=O)n(CCC(=O)O)c2cc1Cl)c1ncc(Cl)cn1 (single isomer, unassigned) [Example 24, 3-{5-chloro-6-[1-(5-chloropyrimidin-2-yl)ethoxy]-2-oxo-2,3-dihydro-1,3-benzothiazol-3-yl}propanoic acid]
≤ 10 nM | Cc1cnc(COc2cc3sc(=O)n(CCC(=O)O)c3cc2Cl)nc1 [Example 4, 3-{5-chloro-6-[(5-methylpyrimidin-2-yl)methoxy]-2-oxo-2,3-dihydro-1,3-benzothiazol-3-yl}propanoic acid]
≤ 10 nM | O=C(O)CCn1c(=O)sc2cc(OCc3ccc(Cl)cn3)c(Cl)cc21 [Example 21, 3-{5-chloro-6-[(5-chloropyridin-2-yl)methoxy]-2-oxo-2,3-dihydro-1,3-benzothiazol-3-yl}propanoic acid]
≤ 10 nM | O=C(O)CCn1c(=O)sc2cc(OCc3ncc(Cl)cn3)c(Cl)cc21 [Example 27, 3-{5-chloro-6-[(5-chloropyrimidin-2-yl)methoxy]-2-oxo-2,3-dihydro-1,3-benzothiazol-3-yl}propanoic acid]
≤ 10 nM | Cc1ccc(COc2cc3sc(=O)n(CCC(=O)O)c3cc2Cl)nc1 [Example 30, 3-{5-chloro-6-[(5-methylpyridin-2-yl)methoxy]-2-oxo-2,3-dihydro-1,3-benzothiazol-3-yl}propanoic acid]
